Measured values taken from US9617273B2, “Fused tetra or penta-cyclic dihydrodiazepinocarbazolones as PARP inhibitors” (BEIGENE, LTD., priority 2011, dated 2017).

System: PARP PARylation in HeLa cells
Assay: PARylation assay in HeLa cells
Assay type: cell-based
Settings: H2O2-provoked DNA damage

For “10-(2-hydroxyethyl)-2,2-dimethyl-2,3,5,10-tetrahydro-[1,2]diazepino[3,4,5,6-def]carbazol-6(1H)-one [Compound 67]”, which EC50 is on record?
Its EC50 is 247 nM.
